Laboratory results reported in patent publication US20240408214A1, “NANOPARTICULATE MONOBENZONE FOR TREATING MELANOMA” (Northwestern University, priority 2021, published 2024).

Assays:
[1] = cited from earlier work
B16-F10 tumors = experiment: CD8 T cell infiltration in B16-F10 tumors of mice pretreated topically (FIG. 6); type: in vivo, mouse; settings: mice pretreated topically with 1.5 M MBEH vs without; n=3, p<0.01
B16 melanoma cells = experiment: cells; settings: Mus musculus, B16, 24 h, read-out: half-maximum cytotoxicity (IC50) concentration
Method: FIG. 8. […] Free MBEH or lauroyl-MBEH-loaded liposomes were added to B16 melanoma cells in culture. After 24 h, the viability among the remaining cells was measured at different nanoparticle concentrations.

M14 melanoma cells = experiment: Change in viable cell numbers of M14 melanoma cells over the treatment period (FIG. 9); type: cell-based; settings: 100 μM, 24 h, untreated cells gained 96% viable cells
Method: FIG. 9. First panel: Single cell functional proteomics data indicates functional heterogeneity when comparing the effects of free and nanoparticulate MBEH on cellular functions among live cells. Adherent M14 melanoma cells were incubated for 24 h with 100 μM of free MBEH (a), nanoparticulate monobenzone with lauroyl MBEH-loaded liposomes (b), MBEH-loaded MOF nanoparticles (c) or vehicle alone (d) before being harvested and loaded into individual wells of the respective Isocode chips (˜30,000 cells/sample) to measure the presence of phosphorylated proteins among individual, live cells by IsoPlexis functional proteomics. […] The decreases in cell-proliferation pathways are even more than those observed in cells that have been exposed to the free MBEH. The individual phosphoproteins measured (results are shown for ˜300 live, single cells per group) are categorized as shown in the legend. The most profound effect on cell signaling was found in presence of long-tailed MBEH. Over the treatment period, untreated cells gained 96% viable cells, whereas cell numbers were reduced by 45, 29 and 1% respectively in response to the free drug, MBEH-loaded MOFs and liposomes loaded with lauroyl MBEH, respectively. Functional heterogeneity among treatments was driven by PARP, P-eIF4α and ribosomal P-S6. Second panel: Viability changes of M14 melanoma cells shown between 24-48 h of treatment. […]

[2] = system: Transfected HEK cells and B16-F10 melanoma cells; experiment: MTT cytotoxicity in HEK cells transfected with melanosomal enzymes and in B16-F10 cells (FIG. 3); type: cell-based; settings: 250 μM, 24 h, MTT assay
Method: Transfected HEK cells and B16-F10 melanoma cells were exposed to 250 μM of MBEH for 24 h before cytotoxicity was measured via MTT assay.

[3] = system: B16-F10 mouse melanoma cells; experiment: Tumor volumes in mice pretreated topically and challenged with B16-F10 cells (FIG. 1); type: in vivo; settings: 1.5 M topical for 3 weeks before challenge with 5×10^5 B16-F10 cells; p<0.05
[4] = system: TRP-1+ melanocytes in C57BL/6 skin; experiment: Detection of TRP-1+ melanocytes in topically treated mouse skin (FIG. 2); type: in vivo; settings: 1.5 M topical for 6 weeks
Source text: FIG. 2. Melanocytes are undetectable in mouse skin topically treated with MBEH. TRP-1^+ melanocytes (arrows) are detected in control animals but not in C57BL/6 skin treated with 1.5 M MBEH for 6 weeks.

Oc1ccc(OCc2ccccc2)cc1 [MBEH, monobenzyl ether of hydroquinone]
solubility in water [1]: highly insoluble in water
number of cytotoxic (CD8) T cells in tumors, enhancement after exposure (B16-F10 tumors): 4.7 fold
IC50 (B16 melanoma cells): ~500 µM
cell numbers reduced over the treatment period (M14 melanoma cells): 45%
cytotoxicity mediated by melanosomal enzymes [2]: All enzymes but MART-1 can mediate cytotoxicity
tumor growth (tumor volumes) [3]: prevents tumor growth
TRP-1+ melanocytes in skin [4]: undetectable
